Here are results for 23 molecules from ChEMBL document CHEMBL5537177, “Discovery of Potent Antimalarial Type II Kinase Inhibitors with Selectivity over Human Kinases” (J Med Chem, 2024).

Where only a bound is given, the exact number is not on record here.

Data set [1] concerns Plasmodium falciparum. Kind of data set: Antiplasmodial activity against multidrug-resistant Plasmodium falciparum Dd2 at ring stage infected in A+ erythrocytes assessed as parasite growth reduction incubated for 72 hrs by SYBR Green I dye based analysis. It is filed as functional, organism-based. The note with it: Dd2, Erythrocyte.
Data set [2] deals with Plasmodium falciparum. Kind of data set: Antiplasmodial activity against drug-sensitive Plasmodium falciparum 3D7 at ring stage infected in A+ erythrocytes assessed as parasite growth reduction incubated for 72 hrs by SYBR Green I dye based analysis. The settings on record: 3D7, Erythrocyte. The class given is functional, organism-based.
Data set [3] concerns Plasmodium falciparum. Kind of data set: Resistance index, ratio of EC50 for multidrug-resistant Plasmodium falciparum Dd2 at ring stage infected in A+ erythrocytes to EC50 for drug-sensitive Plasmodium falciparum 3D7 at ring stage infected in A+ erythrocytes. It is filed as organism-based. The note with it: human.
For data set [4], the system named is HepG2. Briefly: Cytotoxicity against human HepG2 cells assessed as reduction in cell viability incubated for 48 hrs by MTS assay. The class given is toxicity, cell-based. The note with it: hepg2. A general note: Formazan colour is commonly taken as a measure of viable cells.
Data set [5] is described as follows: Selectivity index, ratio of EC50 for human HepG2 cells to EC50 for multidrug-resistant Plasmodium falciparum Dd2 at ring stage infected in A+ erythrocytes. The class given is toxicity, cell-based. The note with it: read-out: Ratio EC50.
The subject of data set [6] is MCF7. Briefly: Cytotoxicity against human MCF7 cells assessed as reduction in cell viability incubated for 48 hrs by MTS assay. It is filed as toxicity, cell-based. The note with it: mcf7.
Data set [7] can be described thus: Selectivity index, ratio of EC50 for human MCF7 cells to EC50 for multidrug-resistant Plasmodium falciparum Dd2 at ring stage infected in A+ erythrocytes. The class given is toxicity, cell-based. The settings on record: read-out: Ratio EC50.
Data set [8] in a line: Metabolic stability in mouse liver microsomes assessed as half life. The class given is ADME, Liver cells. For orientation: Liver microsomes are a subcellular fraction often used to study metabolism.
Data set [9] is described as follows: Metabolic stability in mouse liver microsomes assessed as intrinsic clearance. It is filed as ADME, Liver cells.

For orientation: EC50 means the concentration needed to bring the measured effect to its halfway point. Regarding `CCN1CCN(Cc2ccc(NC(=O)c3cc(NC(=O)c4cncc(-c5cccs5)c4)c(C)cc3F)cc2C(F)(F)F)CC1`, the concentration giving a half-maximal response (EC50) in data set [1] was determined as 1.58 µM; in [2], 1.46 µM; in [4], 4.05 µM; in [6] it was 6.91 µM. The “Ratio EC50” value in data set [3] came out at 1.1. The selectivity ratio is 2.6 in [5] and 4.4 in data set [7].

Regarding `CCN1CCN(Cc2ccc(NC(=O)c3cc(Cl)cc(Nc4cncc(-c5cccs5)c4)c3)cc2C(F)(F)F)CC1`, the EC50 in [1] was found to be 0.296 µM; in [2], 0.253 µM; in data set [4], 3.62 µM; in data set [6], 5.53 µM. In data set [3], the “Ratio EC50” value is reported as 1.2. For the same molecule, the selectivity ratio in [5] was 12; in data set [7] it was 19.

`CCN1CCN(Cc2ccc(NC(=O)c3cc(Cl)cc(NCc4cncc(-c5cccs5)c4)c3)cc2C(F)(F)F)CC1`: the EC50 in [1] is 0.344 µM; in data set [2], 0.31 µM; in [4] it was 5.59 µM; in [6], 8.33 µM. In addition, the “Ratio EC50” value in data set [3] was 1.1. Moreover, the selectivity ratio is 16 in [5] and 24 in [7].

In the case of `CCN1CCN(Cc2ccc(NC(=O)c3cc(Cl)cc(NC(=O)c4cccnc4)c3)cc2C(F)(F)F)CC1`, the EC50 in [1] is 0.147 µM; in data set [2], 0.127 µM; in data set [4], 10.4 µM; in data set [6], 11 µM. Further, in data set [3], the “Ratio EC50” value was determined as 1.2. Moreover, the selectivity ratio in data set [5] is 71; in data set [7], 75. Besides, the t1/2 in data set [8] was 15.1 min. In [9], the intrinsic clearance was 46 µL/min/mg.

Take `CCN1CCN(Cc2ccc(NC(=O)c3cc(Cl)cc(NC(=O)c4cncc(C#N)c4)c3)cc2C(F)(F)F)CC1`: the EC50 in data set [1] is 0.191 µM; in data set [2], 0.186 µM; in data set [4] it was 11 µM; in data set [6], 7.58 µM. Besides, the “Ratio EC50” value in data set [3] is reported as 1. Further, the selectivity ratio in data set [5] turned out to be 58; in data set [7] it was 40.

In the case of `CCN1CCN(Cc2ccc(NC(=O)c3cc(Cl)cc(NC(=O)c4cncc(-c5ccccc5)c4)c3)cc2C(F)(F)F)CC1`, the EC50 in data set [1] worked out at 0.05 µM; in data set [2], 0.041 µM; in data set [4], 3.29 µM; in [6] it was 4.35 µM. Moreover, the “Ratio EC50” value in data set [3] was found to be 1.2. The values for the selectivity ratio in data set [5] and in data set [7] were 66 and 87, respectively. Further, in data set [8], the t1/2 amounted to 50.2 min. In addition, in data set [9], the intrinsic clearance stood at 14 µL/min/mg.

Turning to `O=C(Nc1cccc(C(F)(F)F)c1)c1cc(Cl)cc(NC(=O)c2cncc(-c3cccs3)c2)c1`, the EC50 in data set [1] is 1.11 µM; in [2], 0.541 µM; in [4], above 20 µM; in data set [6] it was above 20 µM. For the same molecule, the “Ratio EC50” value in [3] amounted to 2.1. Further, the selectivity ratio in data set [5] and in [7] was above 18 in each case.

Consider `CCN1CCN(Cc2ccc(NC(=O)c3cc(Cl)cc(NC(=O)c4cccc(-c5cccs5)c4)c3)cc2C(F)(F)F)CC1`, for which the EC50 is 0.253 µM in data set [1], 0.196 µM in data set [2], 5.46 µM in [4] and 8.36 µM in [6]. For the same molecule, in [3], the “Ratio EC50” value is reported as 1.3. The values for the selectivity ratio in data set [5] and in data set [7] were 22 and 33, respectively.

Regarding `CCN1CCN(Cc2ccc(NC(=O)c3cc(NC(=O)c4cncc(-c5cccs5)c4)ccc3F)cc2C(F)(F)F)CC1`, the EC50 in data set [1] turned out to be 0.981 µM; in [2] it was 0.491 µM; in data set [4], 6.71 µM; in data set [6], 10.8 µM. Further, the “Ratio EC50” value in [3] is 2. Moreover, the selectivity ratio was found to be 6.8 in data set [5] and 11 in data set [7].

With `CCN1CCN(Cc2ccc(NC(=O)c3cc(Cl)cc(NC(=O)c4cncc(-c5ccco5)c4)c3)cc2C(F)(F)F)CC1`, the EC50 in data set [1] turned out to be 0.051 µM; in [2], 0.058 µM; in data set [4], 5.41 µM; in data set [6], 6.49 µM. For the same molecule, in [3], the “Ratio EC50” value is reported as 0.9. Further, the selectivity ratio in data set [5] was found to be 106; in data set [7], 127. In addition, the t1/2 in data set [8] amounted to 58.1 min. The intrinsic clearance in data set [9] is 12 µL/min/mg.

On to `CCN1CCN(Cc2ccc(NC(=O)c3cc(Cl)cc(NC(=O)c4cncnc4)c3)cc2C(F)(F)F)CC1`, for which the concentration for a half-maximal effect (EC50) in data set [1] amounted to 0.52 µM; in data set [2] it was 0.395 µM; in [4], 17.3 µM; in data set [6], 15.3 µM. For the same molecule, the “Ratio EC50” value in data set [3] came to 1.3. Moreover, the selectivity ratio amounted to 33 in data set [5] and 29 in data set [7].

For the molecule `CCN1CCN(Cc2ccc(NC(=O)c3cc(Cl)cc(NC(=O)N4CCN(C)CC4)c3)cc2C(F)(F)F)CC1`, the EC50 was found to be 1.23 µM in [1], 2.12 µM in data set [2], 14 µM in data set [4] and 18.8 µM in data set [6]. Also, the “Ratio EC50” value in data set [3] turned out to be 0.6. Moreover, the selectivity ratio came out at 11 in data set [5] and 15 in data set [7].

As for `O=C(Nc1ccnc(N2CCOCC2)c1)c1cc(Cl)cc(NC(=O)c2cncc(-c3cccs3)c2)c1`, the EC50 in data set [1] was 0.739 µM; in data set [2], 0.7 µM; in data set [4] it was above 20 µM; in data set [6], 14.7 µM. Also, the “Ratio EC50” value in data set [3] was 1.1. Moreover, the results for the selectivity ratio in data set [5] and in data set [7] were above 27 and 20, respectively.

As for `CCN1CCN(Cc2ccc(NC(=O)c3cc(F)cc(NC(=O)c4cncc(-c5cccs5)c4)c3)cc2C(F)(F)F)CC1`, the EC50 in data set [1] was 0.135 µM; in data set [2], 0.113 µM; in [4], 6.69 µM; in data set [6], 10.2 µM. The “Ratio EC50” value in [3] is recorded as 1.2. Also, the selectivity ratio in data set [5] is 50; in data set [7], 76. For the same molecule, the t1/2 in [8] amounted to 32.4 min. The intrinsic clearance in [9] is 21 µL/min/mg.

As for `CCN1CCN(Cc2ccc(NC(=O)c3cc(Cl)cc(NC(=O)c4cncc(-c5cncs5)c4)c3)cc2C(F)(F)F)CC1`, the EC50 in data set [1] came out at 0.056 µM; in [2], 0.074 µM; in data set [4], 6.08 µM; in data set [6], 8.14 µM. The “Ratio EC50” value in data set [3] was found to be 0.8. Further, the selectivity ratio turned out to be 109 in data set [5] and 145 in data set [7]. In [8], the t1/2 was determined as 52.1 min. The intrinsic clearance in data set [9] amounted to 13 µL/min/mg.

Take `CCN1CCN(Cc2ccc(NC(=O)c3cc(Cl)cc(NC(=O)c4cncc(-c5cccs5)c4)c3)cc2)CC1`: the EC50 in data set [1] turned out to be 0.081 µM; in data set [2] it was 0.076 µM; in data set [4], 8.77 µM; in [6] it was 10.3 µM. The “Ratio EC50” value in data set [3] is given as 1.1. In addition, the selectivity ratio in [5] was 108; in data set [7] it was 127. Besides, in data set [8], the t1/2 stood at 65.3 min. Moreover, in data set [9], the intrinsic clearance is 11 µL/min/mg.

As for `CCN1CCN(Cc2ccc(NC(=O)c3cc(Cl)cc(NC(=O)c4cnc(N)nc4)c3)cc2C(F)(F)F)CC1`, the EC50 came to 0.709 µM in data set [1], 0.378 µM in [2], 19.2 µM in data set [4] and 13.7 µM in data set [6]. Besides, the “Ratio EC50” value in data set [3] turned out to be 1.9. In addition, the selectivity ratio in data set [5] was 27; in [7], 19.

For the molecule `CCN1CCN(Cc2ccc(NC(=O)c3ccc(F)c(NC(=O)c4cncc(-c5cccs5)c4)c3)cc2C(F)(F)F)CC1`, the concentration giving a half-maximal response (EC50) in [1] was 1.32 µM; in data set [2] it was 0.763 µM; in data set [4], 3.17 µM; in data set [6], 5.1 µM. The “Ratio EC50” value in data set [3] amounted to 1.7. For the same molecule, the selectivity ratio in data set [5] was found to be 2.4; in data set [7], 3.9.

As to `CCN1CCN(Cc2ccc(C(=O)Nc3cc(Cl)cc(NC(=O)c4cncc(-c5cccs5)c4)c3)cc2C(F)(F)F)CC1`, the EC50 came out at 0.104 µM in data set [1], 0.073 µM in [2], 9.16 µM in data set [4] and 7.03 µM in data set [6]. In addition, the “Ratio EC50” value in [3] was 1.4. For the same molecule, the selectivity ratio in data set [5] worked out at 88; in data set [7], 68.

On to `CCN1CCN(Cc2ccc(NC(=O)c3ccc(OC)c(NC(=O)c4cncc(-c5cccs5)c4)c3)cc2C(F)(F)F)CC1`, for which the EC50 in data set [1] was found to be 1.54 µM; in data set [2] it was 0.821 µM; in data set [4] it was 3.24 µM; in data set [6], 5.06 µM. Besides, the “Ratio EC50” value in [3] came out at 1.9. The selectivity ratio amounted to 2.1 in [5] and 3.3 in data set [7].

In the case of `CCN1CCN(Cc2ccc(NC(=O)c3cc(Cl)cc(C(=O)Nc4cncc(-c5cccs5)c4)c3)cc2C(F)(F)F)CC1`, the EC50 in data set [1] came out at 0.109 µM; in data set [2], 0.082 µM; in data set [4], 4.24 µM; in data set [6], 5.36 µM. The “Ratio EC50” value in data set [3] is given as 1.3. Further, the selectivity ratio was found to be 39 in [5] and 49 in [7].

As for `CCN1CCN(Cc2ccc(NC(=O)c3cc(Cl)cc(NC(=O)c4ccccc4)c3)cc2C(F)(F)F)CC1`, the EC50 in [1] worked out at 0.493 µM; in data set [2] it was 0.361 µM; in data set [4] it was 7.24 µM; in data set [6], 6.07 µM. In addition, in data set [3], the “Ratio EC50” value was determined as 1.4. The selectivity ratio in data set [5] is 15; in data set [7], 12.

With `CCN1CCN(Cc2ccc(NC(=O)c3ccnc(NC(=O)c4cncc(-c5cccs5)c4)c3)cc2C(F)(F)F)CC1`, the EC50 is 0.579 µM in data set [1], 0.356 µM in data set [2], 3.03 µM in [4] and 4.61 µM in data set [6]. Further, the “Ratio EC50” value in data set [3] was found to be 1.6. Further, the results for the selectivity ratio in data set [5] and in data set [7] were 5.2 and 8, respectively.
